Test results reported in patent US20190015383A1, “CANNABINOID COMPOSITIONS AND METHODS OF PREPARATION THEREOF” (5071, Inc., priority 2017, published 2019).

Assay: Water solubility testing (solubility time in water)
Assay type: physicochemical
Details: 10 mg sample in 240 mL water, magnetic stirring
Procedure: Water solubility testing was performed for Compositions C, D1, D2, and E described in Examples 3, 4, and 6. Each composition was tested at temperatures of 22° C. (tap water) and 10° C. (iced tap water). For each test, 240 mL of water at the target temperature (22° C. or 10° C.) was added to a beaker and a magnetic stirrer used with medium agitation, creating a slight vortex. A 10 mg sample of the composition to be tested was added over a 1-2 second time period and allowed to mix. The time in seconds until no particulates were visually discernable (either suspended in solution or settled out) was recorded as the solubility time. The solubility of table sugar (i.e., granulated sucrose) was also tested according to the same procedure for comparison.
The following categories were used to assess solubility characteristics: <30 sec=excellent to good solubility, 1-3 min=fair solubility, 3-5 min=poor solubility, and >5 min=insoluble.

OC[C@H]1O[C@@](CO)(O[C@H]2O[C@H](CO)[C@@H](O)[C@H](O)[C@H]2O)[C@@H](O)[C@@H]1O [Table sugar, sucrose]
Solubility time (10° C. (iced tap water)): <60 s
Solubility time (22° C. (tap water)): 22 s
